Test results from PMC9388600, “Uncovering the roles of dihydropyrimidine dehydrogenase in fatty-acid induced steatosis using human cellular models” (Scientific Reports, 2022).
Residue numbers refer to the chain shown, from its start.

Tests used:
[1] = biological target: T1, Dihydropyrimidine dehydrogenase (DPYD) (Homo sapiens, UniProt Q12882); assay: uracil accumulation in media of primary human hepatocytes treated with inhibitor, LC/MS/MS (endogenous DPYD); assay type: cell-based
T1 sequence (Q12882 4-1025): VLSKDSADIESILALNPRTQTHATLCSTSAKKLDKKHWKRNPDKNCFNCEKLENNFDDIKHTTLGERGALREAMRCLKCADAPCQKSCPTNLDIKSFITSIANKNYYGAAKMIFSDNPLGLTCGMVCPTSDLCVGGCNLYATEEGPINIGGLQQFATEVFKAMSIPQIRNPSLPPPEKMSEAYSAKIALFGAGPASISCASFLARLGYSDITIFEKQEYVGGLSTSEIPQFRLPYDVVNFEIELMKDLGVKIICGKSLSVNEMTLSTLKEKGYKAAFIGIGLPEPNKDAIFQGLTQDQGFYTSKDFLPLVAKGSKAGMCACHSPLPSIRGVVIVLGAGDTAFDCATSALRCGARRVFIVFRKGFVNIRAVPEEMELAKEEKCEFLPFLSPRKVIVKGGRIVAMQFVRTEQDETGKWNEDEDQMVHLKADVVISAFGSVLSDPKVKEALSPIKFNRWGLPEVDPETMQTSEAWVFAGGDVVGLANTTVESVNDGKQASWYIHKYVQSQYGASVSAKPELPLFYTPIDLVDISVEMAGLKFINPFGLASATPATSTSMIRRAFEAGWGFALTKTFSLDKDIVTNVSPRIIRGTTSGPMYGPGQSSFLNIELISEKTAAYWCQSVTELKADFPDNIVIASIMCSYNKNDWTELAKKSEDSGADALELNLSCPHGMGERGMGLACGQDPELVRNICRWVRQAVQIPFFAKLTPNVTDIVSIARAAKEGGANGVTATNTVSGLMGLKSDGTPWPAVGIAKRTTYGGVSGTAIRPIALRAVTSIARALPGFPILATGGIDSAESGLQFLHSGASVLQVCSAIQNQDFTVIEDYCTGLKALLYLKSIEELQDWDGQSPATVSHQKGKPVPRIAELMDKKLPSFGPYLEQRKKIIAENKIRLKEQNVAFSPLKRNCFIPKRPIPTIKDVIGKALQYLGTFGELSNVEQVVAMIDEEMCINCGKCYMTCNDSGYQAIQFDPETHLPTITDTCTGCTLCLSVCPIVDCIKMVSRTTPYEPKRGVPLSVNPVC

[2] = biological target: T2, Dihydropyrimidine dehydrogenase (DPYD) (Homo sapiens, UniProt Q12882, L310S); assay: steady-state kinetics of purified mutant enzyme, fluorometric NADPH depletion; substrate inhibition model (kcat); assay type: biochemical
T2 construct: recombinant L310S mutant DPYD, expressed from pET28a(+) in E. coli
T2 sequence (Q12882 4-1025 L310S): T1 sequence (Q12882 4-1025) with L307S

[3] = biological target: T1, Dihydropyrimidine dehydrogenase (DPYD); assay: steady-state kinetics of purified enzyme, fluorometric NADPH depletion; substrate inhibition model (kcat); assay type: biochemical; set-up: recombinant wild type DPYD, expressed from pET28a(+) in E. coli
Procedure: steady-state kinetics of purified enzyme, fluorometric NADPH depletion; substrate inhibition model (kcat) on Dihydropyrimidine dehydrogenase (DPYD) | The kinetic measurements of DPYD were carried out by varying concentrations of uracil.

IC50 [1] [nM]	steady-state kinetics of purified mutant enzyme, fluorometric NADPH depletion; s [2] [min⁻¹]	steady-state kinetics of purified enzyme, fluorometric NADPH depletion; substrat [3] [min⁻¹]	Structure (SMILES)
56	–	–	Oc1cc(O)c(Cl)cn1 [Gimeracil]
–	99 ± 5	65 ± 4	O=c1cc[nH]c(=O)[nH]1 [uracil]
